The nature of data set [1]: Solubility test (HPLC external standard method). It counts as physicochemical. Here is the method:
In this Experimental Example, the solubility of two crystal form in different pH of simulated human gastric juice were tested to study the solubility of the crystal forms.
Solubility test: HPLC external standard method
(§1) Chromatographic column: octadecyl silane bonded silica gel as filler
Mobile phase: phosphate buffer (pH3.5):methanol:acetonitrile=2:9:9 (volume ratio)
Detection wavelength: 215 nm
Excess amount of Crystal Form D and Crystal Form Y were placed in tubes with plug, to which were added 10 ml of water (purified water), hydrochloric acid solution of pH 1.2, hydrochloric acid solution of pH 2.0, acetate buffer of pH 4.0, phosphate buffers of pH 4.5, 5.0, 6.8, 8.0, respectively, and vibrated on 37° C. water bath, then filtered. The subsequent filtrate was subjected to HPLC assay.
The preparations of various pH buffers can be referred to “Guideline for Dissolution Test of Normal Oral Solid Formulation” issued by Center for Drug Evaluation of China Food and Drug Administration for dissolution medium, and are detailed as follows:
The hydrochloric acid solution of pH 1.2 is prepared by diluting 7.65 ml of hydrochloric acid with water to 1000 ml and mixing well.
The hydrochloric acid solution of pH 2.0 is prepared by diluting 1.17 ml of hydrochloric acid with water to 1000 ml and mixing well.
The acetate buffer of pH 4.0 is prepared by diluting mixture of 1.22 g of sodium acetate with 20.5 ml of 2 mol/L acetic acid solution with water to 1000 ml and mixing well. The 2 mol/L acetic acid solution is prepared by diluting 114 mL of glacial acetic acid with water to 1000 ml.
The phosphate buffers of pH 4.5, 5.0, 6.8, 8.0 are prepared by adjusting pH of 0.2 mol/L monopotassium phosphate solution with 0.2 mol/L sodium hydroxide solution to pH 4.5, 5.0, 6.8, 8.0, respectively. The 0.2 mol/L monopotassium phosphate solution is prepared by dissolving 27.22 g of monopotassium phosphate in water and diluting to 1000 mL. The 0.2 mol/L sodium hydroxide solution is prepared by dissolving 8.00 g of sodium hydroxide in water and diluting to 1000 mL.

The nature of data set [2]: High temperature stability test. It counts as physicochemical. The following applies: 60° C.; for Purity Change: sealed glass bottle.
Text: (§2) In this Experimental Example, high temperature, high humidity tests were used to study the chemical stability of the crystal form according to the invention.
(§3) Purity test: HPLC method (Chinese Pharmacopoeia 2015, Volume IV, general principles 0512)
as §1
(§4) Mobile phase A: 0.02 mol/L phosphate buffer (pH 3.0)-methanol-acetonitrile
(§5) Mobile phase B: methanol-acetonitrile-water
(§6) Detection wavelength: 215 nm.
(§7) Elution condition: gradient elution
The Crystal Form D of the compound of formula I was placed in a sealed and clean glass bottle and placed in 60° C. constant temperature oven. Samples were taken 10 day/30 day respectively for impurity content determination.
(§8) Note: Purity Change=(Difference of sample purity at day 0 and sample purity after a certain period)/Sample purity at day 0×100%.

The nature of data set [3]: High humidity stability test. The following applies: RH 92.5%; for Weight loss on drying / Purity Change: room temperature; for Purity Change: open dish. The data set is classed as physicochemical.
Text: as §2, §3, §1, §4, §5, §6, §7
Weight loss on drying assay: Chinese Pharmacopoeia 2015, Volume IV, general principles 0831
as §8
The Crystal Form D of the compound of formula I was spread in open petri dish with thickness ≤5 mm, at room temperature, in constant temperature incubator of relative humidity (RH) 92.5%. Samples were taken 10 day/30 day for impurity content determination.

Data set [4] is described as follows: Long-term and accelerated stability test. The data set is classed as physicochemical.
Text: as §3, §1, §4, §5, §6, §7
The Crystal Form D of the compound of formula I was packed with inner bag (pharmaceutical low density polyethylene bag) and outer bag (pharmaceutical polyester/aluminum/polyethylene composite film bag), placed under the following stability testing conditions for stability tests.

Data set [5] can be described thus: Pharmacokinetic study in dogs. The data set is classed as in vivo. The following applies: administered to dogs.
Data set [6] can be described thus: Pharmacokinetic study in mice. The data set is classed as in vivo. To be noted: administered to mice.
A short description of data set [7]: Pharmacokinetic study in monkeys. The following applies: administered to monkeys. The data set is classed as in vivo.
Data set [8] in a line: Thermogravimetric Analysis (TGA). It counts as physicochemical. The following applies: heating rate 10K/min, N2 purge, 35-500° C. Here is the method: “Thermogravimetric Analysis (TGA)” is a common method for determining the thermal stability of compounds. The TGA curve can be measured, for example, on a Mettler Toledo TGA1 instrument. The error of TGA may be within about ±0.5 wt %. The term “substantially identical” means that such error variations are considered. Exemplary test conditions are: temperature range is 35-500° C., heating rate is 10 K/min, and purge gas is nitrogen (99.99%).
TGA is collected on Mettler Toledo TGA1 Thermogravimetric Analyzer, purge gas is N2 (99.99%), 100 ml/min; heating rate: 10K/min; temperature range: 35-500° C.
In the curve, the sample began to decompose at about 230° C. and no weight loss was found before decomposition.

The mark [9] stands for this setting: hydrochloric acid solution pH 1.2, 37° C.
Where [10] appears, read: hydrochloric acid solution pH 2.0, 37° C.
Where [11] appears, read: phosphate buffer pH 4.5, 37° C.
[12] abbreviates: phosphate buffer pH 5.0, 37° C.
Setting [13] is: phosphate buffer pH 6.8, 37° C.
The mark [14] stands for this setting: phosphate buffer pH 8.0, 37° C.
Where [15] appears, read: high temperature condition, up to 30 day.
Setting [16] is: high humidity condition, up to 30 day.

Converted amounts (≈) assume the structure as drawn.

Usually Solubility stands for the concentration that dissolves in the medium under given conditions. Lower therefore signals little dissolved substance.

In the case of `CCCCCCO[C@@H](C)c1cccc(-c2csc(NC(=O)c3cc(Cl)c(/C=C(\C)C(=O)O)c(Cl)c3)n2)c1OC` [Crystal Form Y, 4-phenylthiazole derivative], the Solubility stood at 0.4327 µg/mL (≈ 0.731 µM) in data set [1] (acetate buffer pH 4.0, 37° C.); 0.7616 µg/mL (≈ 1.29 µM) in data set [1] (setting [9]); 0.4915 µg/mL (≈ 0.831 µM) in data set [1] (setting [10]); 0.5623 µg/mL (≈ 0.951 µM) in data set [1] (setting [11]); 0.6993 µg/mL (≈ 1.18 µM) in data set [1] (setting [12]); 3.2046 µg/mL (≈ 5.42 µM) in data set [1] (setting [13]). Besides, the Solubility in data set [1] (setting [14]) is 43.0713 µg/mL (≈ 72.8 µM); in data set [1] (water (purified water), 37° C.) it was 5.2325 µg/mL (≈ 8.85 µM).
With `CCCCCCO[C@@H](C)c1cccc(-c2csc(NC(=O)c3cc(Cl)c(/C=C(\C)C(=O)O)c(Cl)c3)n2)c1OC` [Crystal Form D, 4-phenylthiazole derivative], the Solubility was determined as 10.6478 µg/mL (≈ 18 µM) in data set [1] (acetate buffer pH 4.0, 37° C.); 19.1353 µg/mL (≈ 32.3 µM) in data set [1] (setting [9]); 14.5872 µg/mL (≈ 24.7 µM) in data set [1] (setting [10]); 11.4829 µg/mL (≈ 19.4 µM) in data set [1] (setting [11]); 13.8229 µg/mL (≈ 23.4 µM) in data set [1] (setting [12]); 36.0017 µg/mL (≈ 60.9 µM) in data set [1] (setting [13]). Also, the Solubility in data set [1] (setting [14]) stood at 110.5589 µg/mL (≈ 187 µM); in data set [1] (water (purified water), 37° C.), 41.3607 µg/mL (≈ 69.9 µM). In data set [1] (simulated human gastric juice with various pH), the “Solubility compared with Crystal Form Y” value is recorded as “significantly better than that of Crystal Form Y”. Further, the “Purity Change” value in data set [2] (10 day) is given as 0.04%; in data set [2] (30 day), 0.03%; in data set [3] (10 day) it was 0.05%; in data set [3] (30 day), 0%. In addition, the “Change in crystal form (XRPD)” value in data set [2] (setting [15]) and in data set [3] (setting [16]) was “no change in crystal form” in each case. Besides, the “Change in purity (in words)” value in data set [2] (setting [15]) and in data set [3] (setting [16]) was “did not show obvious change in purity” in each case. Also, the “Weight loss on drying” value was found to be 0.31% in data set [3] (0 day), 0.35% in data set [3] (10 day) and 0.36% in data set [3] (30 day). Moreover, the “Change in weight loss on drying (in words)” value in data set [3] (setting [16]) is “little change in weight loss on drying”. For the same compound, the “Change in purity or crystal form (in words)” value in data set [4] (6 month or more under long-term and accelerated conditions) is listed as “no change in purity or crystal form”. For the same compound, the Chemical purity in data set [4] (Accelerated (40° C. ± 2° C./RH75% ± 5%), 0 day) came to 99.83%; in data set [4] (Accelerated (40° C. ± 2° C./RH75% ± 5%), 6 month), 99.83%; in data set [4] (Long-term (25° C. ± 2° C./RH60% ± 5%), 0 day), 99.83%; in data set [4] (Long-term (25° C. ± 2° C./RH60% ± 5%), 6 month), 99.83%; in data set [4] (Long-term (30° C. ± 2° C./RH65% ± 5%), 0 day), 99.83%; in data set [4] (Long-term (30° C. ± 2° C./RH65% ± 5%), 6 month) it was 99.83%. Further, the Pharmacokinetic properties result in data set [5], in data set [6] and in data set [7] was “good pharmacokinetic properties” each time. For the same compound, the “Temperature at which the sample began to decompose (TGA)” value in data set [8] is “about 230 °C”.

These data come from patent US11174234B2, “Crystal form of 4-phenylthiazole derivative and preparation method thereof” (SICHUAN KELUN PHARMACEUTICAL RESEARCH INSTITUTE CO., LTD., priority 2018, dated 2021).
